Laboratory results as given in US7615361B2, “Toxicity screening methods” (Ceetox, Inc., priority 2006, dated 2009).
Like-named read-outs stand apart in the source and are kept apart here.

Columns and labels:
MTT reduction = assay type: cell-based; details: read-out: MTT TC50
Method: Tetrazolium Dye Reduction: 3-[4,5-dimethylthiazol-2-yl]
Dosing solutions were prepared in complete culture medium.

C32 cells = assay: Intracellular total glutathione (GSH); details: C32, 24 HR
Method: (§1) Intracellular Glutathione (GSH) Levels: Intracellular glutathione levels were determined essentially as described by Griffith (1980) with modifications. At the end of the exposure period, the medium was removed from the cells and metaphosphoric acid (MPA) was added to each well. Plates were then shaken for 5 min at room temperature and stored at −20° C. until needed.
(§2) The sample plates were thawed just prior to analysis and centrifuged at >2000×g for at least 2 min. Sample aliquots were removed and transferred to a clean 96-well plate along with appropriate standard curve controls. Sample pH was neutralized just prior to analysis and each well received an aliquot of sodium phosphate reaction buffer containing EDTA, DTNB, NADPH, and glutathione reductase. The plates were mixed for 15-30 min at room temperature and glutathione content was determined calorimetrically with a Packard Fusion or equivalent reader at 415 nm.
(§3) Intracellular Glutathione (GSH) Levels: The assay is based on the concept that all GSH is oxidized to GSSG by DTNB reagent. Two molecules of GSH are required to make one molecule of GSSG. Total GSH was determined by reducing GSSG to 2GSH with glutathione reductase. A standard curve was prepared with oxidized glutathione (GSSG) over a range of concentrations. These concentrations are then converted to glutathione equivalents (GSX) essentially by multiplying the GSSG standard concentrations by 2. The amount of GSX expressed as pmoles/well was determined using the standard curve and regression analysis.
(§4) The test compound consisted of two parts mixed in a constant ratio of 5:1. The final test mixture consisted of Test mix 1 and Test mix 2, which were received as frozen solutions. The test mixture was tested in a ratio of 5:1 COMP A in five different cell types which included the following: SK-MEL28, human hepatocytes, HUVEC, C32, and NHEM cells. Cells were seeded into 96-well plates and cultured in medium containing 10% bovine serum. Following an equilibration period of 48 hr, the cells were treated with the test compound mix at concentrations of COMP A (μg/mL)=(250:50), (125:25), (25:12.5), (12.5:2.5), (2.5:1.25), (1.25:0.25), and (0.25:0.05) for 24 hr (overnight) at 37° C. in 5% CO2. […] Following an equilibration period of 4 hr, the cells were treated with the test compound mix at concentrations of COMP A (μg/mL)=(250:50), (125:25), (25:12.5), (12.5:2.5), (2.5:1.25), (1.25:0.25), and (0.25:0.05) for 24 hr (overnight) at 37° C. in 5% CO2.
(§5) Experimental Protocol: The test compounds were shipped on dry ice for testing. The compounds were stored frozen at −80° C. until needed. Dosing solutions were prepared in complete culture medium. SK-MEL28, human hepatocytes, HUVEC, C32, and NHEM cells were used as the test systems. Cells were seeded into 96-well plates and allowed to equilibrate for approximately 48 hr. Following the equilibration period the cells were exposed to the test compound mix at concentrations of COMP A (μg/mL)=(250:50), (125:25), (25:12.5), (12.5:2.5), (2.5:1.25), (1.25:0.25), and (0.25:0.05). Solubility was determined by Nephalometry techniques immediately after dosing and prior to harvesting the cells at 24 hr. Following the exposure period, the cells or their supernatant (culture medium) were analyzed for changes in cell proliferation, membrane leakage, mitochondrial function, oxidative stress, and apoptosis. The resultant exposure concentration response curves were graphed and analyzed for determining the concentration that produced a half maximal response or TC50.

HUVEC = assay: Intracellular total glutathione (GSH); details: HUVEC, 24 HR
Method: as §1, §2, §3, §4, §5

human hepatocytes = assay: Intracellular total glutathione (GSH); details: 24 HR
Method: as §1, §2, §3, §4, §5

P-glycoprotein (PgP) [1] = target: T1, P-glycoprotein (PgP) (Homo sapiens, UniProt P08183); assay: P-glycoprotein (PgP) binding: MTT with and without cyclosporin A, human hepatocytes; assay type: cell-based; design: SK-MEL28, human hepatocytes, HUVEC, C32, and NHEM cells were used as the test systems; endogenous in cells; details: for % Control (Compound + CSA) / % Control (Compound): human hepatocytes 24 HR, MTT; for % Control (Compound + CSA): with cyclosporin A; for % Control (Compound): without CSA; for % Difference: human hepatocytes, 24 HR
T1 sequence (P08183 whole entry): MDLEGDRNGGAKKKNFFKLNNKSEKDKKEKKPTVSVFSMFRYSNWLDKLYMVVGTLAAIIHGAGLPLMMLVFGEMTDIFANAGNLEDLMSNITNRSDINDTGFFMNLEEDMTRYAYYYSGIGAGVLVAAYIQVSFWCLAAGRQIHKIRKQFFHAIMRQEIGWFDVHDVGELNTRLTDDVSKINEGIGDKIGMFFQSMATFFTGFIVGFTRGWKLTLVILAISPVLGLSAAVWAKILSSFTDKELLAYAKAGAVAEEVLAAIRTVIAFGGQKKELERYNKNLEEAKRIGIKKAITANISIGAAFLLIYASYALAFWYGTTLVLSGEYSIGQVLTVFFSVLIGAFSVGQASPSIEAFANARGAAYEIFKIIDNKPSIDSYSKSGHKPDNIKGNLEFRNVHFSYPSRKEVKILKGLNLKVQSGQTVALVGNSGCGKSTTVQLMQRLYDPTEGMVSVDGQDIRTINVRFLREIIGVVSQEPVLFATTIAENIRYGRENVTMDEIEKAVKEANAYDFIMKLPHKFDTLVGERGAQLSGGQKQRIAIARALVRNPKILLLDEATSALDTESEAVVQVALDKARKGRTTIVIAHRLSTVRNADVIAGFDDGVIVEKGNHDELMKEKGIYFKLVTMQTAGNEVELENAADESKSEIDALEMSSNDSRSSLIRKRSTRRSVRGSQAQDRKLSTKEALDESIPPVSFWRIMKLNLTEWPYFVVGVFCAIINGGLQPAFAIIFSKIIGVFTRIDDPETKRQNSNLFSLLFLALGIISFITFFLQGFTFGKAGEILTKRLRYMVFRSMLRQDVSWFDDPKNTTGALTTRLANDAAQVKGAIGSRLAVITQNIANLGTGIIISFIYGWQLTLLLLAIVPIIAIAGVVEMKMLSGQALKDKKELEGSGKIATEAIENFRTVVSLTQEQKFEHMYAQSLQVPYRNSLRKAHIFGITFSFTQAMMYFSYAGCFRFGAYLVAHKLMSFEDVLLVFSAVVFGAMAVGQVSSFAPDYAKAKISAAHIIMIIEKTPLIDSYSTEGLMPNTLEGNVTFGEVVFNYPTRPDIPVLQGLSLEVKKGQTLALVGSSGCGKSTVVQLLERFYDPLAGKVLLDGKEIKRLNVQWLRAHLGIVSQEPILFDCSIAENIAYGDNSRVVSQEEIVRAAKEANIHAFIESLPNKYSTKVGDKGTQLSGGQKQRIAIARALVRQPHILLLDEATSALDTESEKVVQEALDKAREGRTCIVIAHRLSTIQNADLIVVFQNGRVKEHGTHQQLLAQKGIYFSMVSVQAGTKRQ
Method: P-glycoprotein (PgP) transport proteins are expressed in the bile canalicular membrane of normal liver. However, in neoplastic cells it is not uncommon to have expression of this transporter system in the plasma membrane. The H4IIE cells have a very active efflux pump activity in the plasma membrane. As a result, compounds that are substrates for this transporter may not accumulate inside the cell. The existence of these transporters was evaluated with the Calcein-AM assay and with known substrates of PgP. […] Therefore, compounds that show negative toxicity should be evaluated as potential substrates of PgP and compared to data shown in the PgP table of this example.
The cell supernatant or the cells themselves were harvested for biochemical analysis. General cytotoxicity was evaluated by monitoring membrane integrity, mitochondrial function, cell proliferation, oxidative stress, and apoptosis. In addition to monitoring biochemical changes essential for cell health, interaction with P-glycoprotein (PgP) and solubility were also assessed. The means of each exposure group (n=3-7) were calculated for each assay performed. Intra assay variation well to well was typically less than 10% with plate to plate variation typically less than 20%.

P-glycoprotein (PgP) [2] = target: T1, P-glycoprotein (PgP); assay: P-glycoprotein (PgP) binding: MTT with and without cyclosporin A, SK-MEL28 cells; assay type: cell-based; design: SK-MEL28, human hepatocytes, HUVEC, C32, and NHEM cells were used as the test systems; endogenous in cells; host or cells: SK-MEL28 cells; details: SK-MEL28 24 HR; for % Control (Compound + CSA): with cyclosporin A; for % Control (Compound): without CSA

Structure (SMILES)	CC50 at 24 h (MTT reduction; human, C32 cells, C32, 24 HR) [µM]	CC50 at 24 h (MTT reduction; human, HUVEC) [µM]	Percent Change in Total GSH (C32 cells) [%]	Percent Change in Total GSH (HUVEC) [%]	Percent Change in Total GSH (human hepatocytes) [%]	% Control (Compound + CSA) (P-glycoprotein (PgP) [1]) [%]	% Control (Compound) (P-glycoprotein (PgP) [1]) [%]	% Difference (P-glycoprotein (PgP) [1]) [%]	% Control (Compound + CSA) (P-glycoprotein (PgP) [2]) [%]	% Control (Compound) (P-glycoprotein (PgP) [2]) [%]	CC50 at 24 h (MTT reduction; human hepatocytes) [µM]
CC[C@@]1(O)C(=O)OCc2c1cc1n(c2=O)Cc2cc3ccccc3nc2-1 [CAMPTOTHECIN, Camptothecin]	213	41	−41.1	−85.8	−69.9	65.8	88.5	25.7	63.3	56.5	–
C=C(C)[C@H]1Cc2c(ccc3c2O[C@@H]2COc4cc(OC)c(OC)cc4[C@@H]2C3=O)O1 [ROTENONE, Rotenone]	–	–	12.9	11.3	95.9	60.9	97.1	37.2	117.3	98.2	3
